Experimental data from US9221763B2, “Process for preparing biphenyl imidazole compounds” (Theravance Biopharma R&D IP, LLC, priority 2009, dated 2015).

What was measured:
[1] = Thermogravimetric analysis (TGA); type: physicochemical; conditions: crystalline solid; from room temperature to 150.0° C.
[2] = Differential scanning calorimetry (DSC) thermal analysis; type: physicochemical; conditions: crystalline solid; linear heating ramp of 10° C./min from 22° C. to 250° C.
Method: Differential scanning calorimetry (DSC) was performed using a TA Instruments Model Q-100 module with a Thermal Analyst controller. Data were collected and analyzed using TA Instruments Thermal Solutions software. A 2.05 mg sample of the crystalline compound of Example 1 was accurately weighed into a covered aluminum pan. After a 5 minute isothermal equilibration period at 22° C., the sample was heated using a linear heating ramp of 10° C./min from 22° C. to 250° C.
A 1.12 mg sample of the crystalline compound of Example 2 was similarly evaluated.

Row | Structure (SMILES) | loss of weight (residual moisture or solvent), TGA trace [1] [%] | thermal stability: no thermal decomposition below (DSC thermograph) [2] [°C]
1 | CCOc1nc(CC)c(CN)n1Cc1ccc(-c2ccccc2C(=O)OC(C)(C)C)cc1F [Example 1, 4′-(5-aminomethyl-2-ethoxy-4-ethylimidazol-1-ylmethyl)-3′-fluorobiphenyl-2-carboxylic acid t-butyl ester] | < 0.5 | ≥ 150.0
2 | CCOc1nc(CC)c(CNC(=O)[C@H](CC(C)C)SC(C)=O)n1Cc1ccc(-c2ccccc2C(=O)O)cc1F [Example 2, 4′-{5-[((S)-2-acetylsulfanyl-4-methylpentanoylamino)methyl]-2-ethoxy-4-ethylimidazol-1-ylmethyl}-3′-fluorobiphenyl-2-carboxylic acid] |  | ≥ 150.0
